From ChEMBL document CHEMBL4334438, “Discovery of novel glycogen synthase kinase-3α inhibitors: Structure-based virtual screening, preliminary SAR and biological evaluation for treatment of acute myeloid leukemia” (Eur J Med Chem, 2019)

How the values were obtained:
[1] = system: Serine/threonine-protein kinase B-raf (Homo sapiens), P15056 [V600E]; assay: Inhibition of recombinant full length human B-Raf V599E mutant (416 to end residues) assessed as residual activity at 1 uM using myelin basic protein as substrate incubated for 40 mins in presence of [gamma-33ATP] by scintillation counting based radiometry assay relative to control
Serine/threonine-protein kinase B-raf (Homo sapiens), P15056 [V600E], sequence (P15056 whole entry V600E): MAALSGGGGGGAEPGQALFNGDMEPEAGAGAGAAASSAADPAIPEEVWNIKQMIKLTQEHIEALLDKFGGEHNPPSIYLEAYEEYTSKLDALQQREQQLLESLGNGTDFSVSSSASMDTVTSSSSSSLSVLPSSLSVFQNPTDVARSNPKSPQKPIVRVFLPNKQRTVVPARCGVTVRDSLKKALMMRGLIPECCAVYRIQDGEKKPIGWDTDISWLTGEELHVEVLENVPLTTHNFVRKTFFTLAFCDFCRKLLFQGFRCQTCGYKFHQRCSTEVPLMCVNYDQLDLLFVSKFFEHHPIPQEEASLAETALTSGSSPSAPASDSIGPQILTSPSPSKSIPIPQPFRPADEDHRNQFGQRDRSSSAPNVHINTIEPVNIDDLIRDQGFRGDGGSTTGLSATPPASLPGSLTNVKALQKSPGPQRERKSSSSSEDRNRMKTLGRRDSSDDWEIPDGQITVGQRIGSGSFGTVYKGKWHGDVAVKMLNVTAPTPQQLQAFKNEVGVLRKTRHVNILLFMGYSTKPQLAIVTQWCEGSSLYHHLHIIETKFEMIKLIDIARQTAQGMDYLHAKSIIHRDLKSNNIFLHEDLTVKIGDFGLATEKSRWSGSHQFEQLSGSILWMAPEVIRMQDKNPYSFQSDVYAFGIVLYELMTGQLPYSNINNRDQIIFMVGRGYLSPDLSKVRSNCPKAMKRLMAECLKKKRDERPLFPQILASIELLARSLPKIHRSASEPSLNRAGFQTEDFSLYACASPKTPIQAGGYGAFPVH

[2] = target: Serine/threonine-protein kinase N2 (Homo sapiens) (UniProt Q16513); assay: Inhibition of recombinant human PRK2 (501 to end residues) assessed as residual activity at 1 uM using AKRRRLSSLRA as substrate measured after 40 mins in presence of [gamma33P]ATP by scintillation counting method relative to control
Serine/threonine-protein kinase N2 (Homo sapiens), sequence (Q16513 whole entry, looked up): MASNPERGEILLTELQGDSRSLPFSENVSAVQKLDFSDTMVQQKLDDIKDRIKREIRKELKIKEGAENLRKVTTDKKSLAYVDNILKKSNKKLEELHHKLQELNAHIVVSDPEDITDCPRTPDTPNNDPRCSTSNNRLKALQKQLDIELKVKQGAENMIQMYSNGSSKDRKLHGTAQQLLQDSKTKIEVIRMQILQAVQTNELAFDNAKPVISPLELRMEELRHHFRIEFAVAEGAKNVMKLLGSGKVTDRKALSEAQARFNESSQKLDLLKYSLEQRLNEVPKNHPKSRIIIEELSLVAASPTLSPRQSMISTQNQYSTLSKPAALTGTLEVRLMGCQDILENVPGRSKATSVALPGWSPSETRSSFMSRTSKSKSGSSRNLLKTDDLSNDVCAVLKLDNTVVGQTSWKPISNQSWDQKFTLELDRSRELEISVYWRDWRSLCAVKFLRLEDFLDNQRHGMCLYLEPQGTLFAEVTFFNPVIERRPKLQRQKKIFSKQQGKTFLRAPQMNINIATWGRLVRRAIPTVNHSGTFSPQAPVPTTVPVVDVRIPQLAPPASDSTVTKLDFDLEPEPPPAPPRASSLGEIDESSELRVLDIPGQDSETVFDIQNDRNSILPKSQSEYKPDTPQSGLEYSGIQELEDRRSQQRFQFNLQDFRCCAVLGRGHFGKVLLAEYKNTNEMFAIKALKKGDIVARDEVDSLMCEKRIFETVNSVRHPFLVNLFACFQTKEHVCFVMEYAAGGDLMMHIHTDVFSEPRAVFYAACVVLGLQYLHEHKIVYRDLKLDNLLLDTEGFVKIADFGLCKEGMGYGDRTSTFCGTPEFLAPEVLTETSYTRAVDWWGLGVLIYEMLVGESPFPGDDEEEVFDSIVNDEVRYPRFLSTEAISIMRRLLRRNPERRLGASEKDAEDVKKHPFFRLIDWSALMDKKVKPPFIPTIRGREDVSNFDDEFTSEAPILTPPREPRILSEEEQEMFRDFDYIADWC

[3] = target: Dual specificity mitogen-activated protein kinase kinase 1 (Homo sapiens) (UniProt Q02750); assay: Inhibition of recombinant human MEK1 assessed as residual activity at 1 uM using inactive MAPK2 as substrate incubated for 40 mins in presence of [gamma-33ATP by scintillation counting based radiometry assay relative to control
Dual specificity mitogen-activated protein kinase kinase 1 (Homo sapiens), sequence (Q02750 whole entry, the tested form may be a part): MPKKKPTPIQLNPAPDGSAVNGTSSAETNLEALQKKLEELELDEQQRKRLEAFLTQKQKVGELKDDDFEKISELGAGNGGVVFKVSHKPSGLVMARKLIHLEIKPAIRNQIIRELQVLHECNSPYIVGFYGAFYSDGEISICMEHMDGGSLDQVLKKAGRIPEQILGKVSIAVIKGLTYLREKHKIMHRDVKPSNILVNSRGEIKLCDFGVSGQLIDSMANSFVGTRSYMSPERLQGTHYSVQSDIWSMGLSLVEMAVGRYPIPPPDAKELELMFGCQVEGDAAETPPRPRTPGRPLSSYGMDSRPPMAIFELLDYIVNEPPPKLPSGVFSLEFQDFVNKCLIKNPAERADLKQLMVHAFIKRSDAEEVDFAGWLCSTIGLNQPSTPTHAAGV

[4] = target: Ephrin type-A receptor 4 (Homo sapiens) (UniProt P54764); assay: Inhibition of recombinant human EphA4 (601 to 892 residues) assessed as residual activity at 1 uM using poly(Glu, Tyr) 4:1 as substrate at 40 mins in presence of [gamma-33ATP] by scintillation counting based radiometry assay relative to control
[5] = target: CDK4/Cyclin D3 (Homo sapiens) (UniProt P11802+P30281); assay: Inhibition of recombinant full length human CDK4/CyclinD3 assessed as residual activity at 1 uM using Rb fragment as substrate incubated for 40 mins in presence of [gamma-33ATP] by scintillation counting based radiometry assay relative to control; assay type: protein-complex assay
[6] = target: Dual specificity tyrosine-phosphorylation-regulated kinase 2 (Homo sapiens) (UniProt Q92630); assay: Inhibition of recombinant human DYRK2 assessed as residual activity at 1 uM using casein as substrate at 40 mins in presence of [gamma-33ATP] by scintillation counting based radiometry assay relative to control
[7] = target: Serine/threonine-protein kinase PLK3 (Homo sapiens) (UniProt Q9H4B4); assay: Inhibition of recombinant human Plk3 (19 to 301 residues) assessed as residual activity at 1 uM using casein as substrate measured after 40 mins in presence of [gamma33P]ATP by scintillation counting method relative to control
[8] = target: G protein-coupled receptor kinase 3 (Homo sapiens) (UniProt P35626); assay: Inhibition of recombinant full length human GRK3 assessed as residual activity at 1 uM using casein as substrate at 40 mins in presence of [gamma-33ATP] by scintillation counting based radiometry assay relative to control
[9] = target: NT-3 growth factor receptor (Homo sapiens) (UniProt Q16288); assay: Inhibition of human TrkC (510 to end residues) assessed as residual activity at 1 uM using GEEPLYWSFPAKKK as substrate measured after 40 mins in presence of [gamma33P]ATP by scintillation counting method relative to control
[10] = target: LIM domain kinase 2 (Homo sapiens) (UniProt P53671); assay: Inhibition of recombinant human LIMK2 assessed as residual activity after 1 uM by radiometry assay relative to control
LIM domain kinase 2 (Homo sapiens), sequence (P53671 whole entry, looked up, the tested form may be a part): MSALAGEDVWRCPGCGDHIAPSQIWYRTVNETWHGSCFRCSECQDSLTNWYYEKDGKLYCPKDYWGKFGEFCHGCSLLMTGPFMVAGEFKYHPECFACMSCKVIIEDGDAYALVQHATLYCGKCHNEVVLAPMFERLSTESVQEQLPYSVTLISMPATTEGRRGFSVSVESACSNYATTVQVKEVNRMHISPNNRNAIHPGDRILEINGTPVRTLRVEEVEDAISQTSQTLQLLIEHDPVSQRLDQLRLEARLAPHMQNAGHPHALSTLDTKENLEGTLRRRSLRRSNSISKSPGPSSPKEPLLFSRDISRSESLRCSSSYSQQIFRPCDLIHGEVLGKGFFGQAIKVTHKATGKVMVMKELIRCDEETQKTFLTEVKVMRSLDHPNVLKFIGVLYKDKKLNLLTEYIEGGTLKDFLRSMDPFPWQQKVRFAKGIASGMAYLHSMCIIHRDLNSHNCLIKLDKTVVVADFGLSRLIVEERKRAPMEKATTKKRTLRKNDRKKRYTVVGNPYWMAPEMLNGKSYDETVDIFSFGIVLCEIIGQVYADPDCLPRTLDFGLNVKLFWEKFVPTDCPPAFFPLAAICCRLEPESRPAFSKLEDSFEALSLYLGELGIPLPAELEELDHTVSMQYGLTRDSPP

[11] = system: Glycogen synthase kinase-3 alpha (Homo sapiens), P49840 [UNDEFINED MUTATION]; assay: Inhibition of human GSK-3alpha S449A mutant (2 to end residues) assessed as residual activity at 1 uM using phospho GS2 peptide as substrate after 40 mins by [gamma-33ATP] radiometric assay
Glycogen synthase kinase-3 alpha (Homo sapiens), P49840 [UNDEFINED MUTATION], sequence (P49840 whole entry, looked up, stated change not applied): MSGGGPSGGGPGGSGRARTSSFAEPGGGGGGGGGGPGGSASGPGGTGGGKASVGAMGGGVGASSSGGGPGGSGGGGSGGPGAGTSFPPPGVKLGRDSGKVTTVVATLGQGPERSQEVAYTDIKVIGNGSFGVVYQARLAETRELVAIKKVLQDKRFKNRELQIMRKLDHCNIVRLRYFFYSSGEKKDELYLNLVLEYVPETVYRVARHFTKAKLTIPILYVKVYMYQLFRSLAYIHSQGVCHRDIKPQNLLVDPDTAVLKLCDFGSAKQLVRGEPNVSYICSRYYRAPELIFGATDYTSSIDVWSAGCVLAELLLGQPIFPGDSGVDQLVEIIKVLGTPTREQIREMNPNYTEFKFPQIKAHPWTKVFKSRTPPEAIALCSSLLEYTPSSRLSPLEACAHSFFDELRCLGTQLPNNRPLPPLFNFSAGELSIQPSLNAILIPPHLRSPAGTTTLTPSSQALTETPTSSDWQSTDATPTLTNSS

[12] = target: Dual specificity protein kinase CLK1 (Homo sapiens) (UniProt P49759); assay: Inhibition of recombinant human CLK1 (130 to end residues) assessed as residual activity at 1 uM using ERMRPRKRQGSVR as substrate incubated 40 mins in presence of [gamma-33ATP] by scintillation counting based radiometry assay relative to control
[13] = target: Platelet-derived growth factor receptor alpha (Homo sapiens) (UniProt P16234); assay: Inhibition of human PDGFRalpha (550 to end residues) assessed as residual activity at 1 uM poly(Glu, Tyr) 4:1 as substrate measured after 40 mins in presence of [gamma33P]ATP by scintillation counting method relative to control
[14] = target: NUAK family SNF1-like kinase 2 (Homo sapiens) (UniProt Q9H093); assay: Inhibition of recombinant human full length NUAK2 assessed as residual activity at 1 uM using KKKVSRSGLYRSPSMPENLNRPR as substrate measured after 40 mins in presence of [gamma33P]ATP by scintillation counting method relative to control
[15] = target: Calcium/calmodulin-dependent protein kinase type 1 (Homo sapiens) (UniProt Q14012); assay: Inhibition of recombinant human CaMKIalpha (2 to end residues) assessed as residual activity at 1 uM […] incubated for 40 mins in presence of [gamma-33ATP] by scintillation counting based radiometry assay relative to control
[16] = system: Dual specificity protein kinase TTK (Homo sapiens), P33981 [S389A]; assay: Inhibition of recombinant full-length human TTK S389A mutant at 1 uM assessed as residual activity at 1 uM using MBP as substrate measured after 40 mins in presence of [gamma33P]ATP by scintillation counting method relative to control
Dual specificity protein kinase TTK (Homo sapiens), P33981 [S389A], sequence (P33981 whole entry S389A): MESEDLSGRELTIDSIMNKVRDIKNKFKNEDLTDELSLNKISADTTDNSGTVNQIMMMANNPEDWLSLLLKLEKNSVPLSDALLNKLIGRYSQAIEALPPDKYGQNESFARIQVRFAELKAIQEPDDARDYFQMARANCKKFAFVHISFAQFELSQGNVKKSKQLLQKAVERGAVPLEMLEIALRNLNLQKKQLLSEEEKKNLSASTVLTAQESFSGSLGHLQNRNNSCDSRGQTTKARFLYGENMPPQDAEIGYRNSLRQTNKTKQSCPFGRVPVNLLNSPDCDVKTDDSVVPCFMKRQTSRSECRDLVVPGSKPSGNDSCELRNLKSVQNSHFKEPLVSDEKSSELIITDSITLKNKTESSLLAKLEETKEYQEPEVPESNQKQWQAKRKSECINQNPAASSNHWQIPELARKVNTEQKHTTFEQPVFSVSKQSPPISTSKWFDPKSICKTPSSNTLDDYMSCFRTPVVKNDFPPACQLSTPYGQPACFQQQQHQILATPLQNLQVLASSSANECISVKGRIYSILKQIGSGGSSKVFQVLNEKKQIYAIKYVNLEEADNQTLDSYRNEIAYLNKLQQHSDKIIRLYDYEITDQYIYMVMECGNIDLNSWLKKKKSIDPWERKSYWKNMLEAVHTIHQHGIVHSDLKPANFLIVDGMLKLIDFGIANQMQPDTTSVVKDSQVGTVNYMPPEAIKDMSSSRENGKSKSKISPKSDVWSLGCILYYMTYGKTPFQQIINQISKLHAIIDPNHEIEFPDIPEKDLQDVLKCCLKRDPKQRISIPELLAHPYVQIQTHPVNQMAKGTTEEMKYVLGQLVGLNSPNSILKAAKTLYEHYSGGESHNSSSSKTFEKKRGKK

[17] = target: Tyrosine-protein kinase ABL2 (Homo sapiens) (UniProt P42684); assay: Inhibition of human Arg (38 to end residues) assessed as residual activity at 1 uM using EAIYAAPFAKKK as substrate incubated for 40 mins in presence of [gamma-33ATP] by scintillation counting based radiometry assay relative to control
[18] = target: Dual specificity mitogen-activated protein kinase kinase 2 (Homo sapiens) (UniProt P36507); assay: Inhibition of recombinant human MEK2 assessed as residual activity at 1 uM using MBP as substrate incubated for 40 mins in presence of [gamma-33ATP by scintillation counting based radiometry assay relative to control
Dual specificity mitogen-activated protein kinase kinase 2 (Homo sapiens), sequence (P36507 whole entry): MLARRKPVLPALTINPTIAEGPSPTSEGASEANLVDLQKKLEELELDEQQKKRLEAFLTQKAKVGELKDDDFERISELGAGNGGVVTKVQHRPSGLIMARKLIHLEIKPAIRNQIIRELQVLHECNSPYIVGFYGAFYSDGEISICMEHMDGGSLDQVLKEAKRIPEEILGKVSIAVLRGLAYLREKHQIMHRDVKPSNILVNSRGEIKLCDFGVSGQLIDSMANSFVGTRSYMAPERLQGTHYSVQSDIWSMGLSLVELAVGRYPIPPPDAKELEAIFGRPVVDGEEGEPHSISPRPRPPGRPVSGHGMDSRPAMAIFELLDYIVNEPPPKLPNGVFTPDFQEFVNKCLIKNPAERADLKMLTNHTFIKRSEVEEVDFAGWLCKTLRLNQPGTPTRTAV

[19] = target: Cyclin-dependent kinase-like 4 (Homo sapiens) (UniProt Q5MAI5); assay: Inhibition of recombinant full length human CDKL4 assessed as residual activity at 1 uM in presence of [gamma-33ATP] by scintillation counting based radiometry assay relative to control
Cyclin-dependent kinase-like 4 (Homo sapiens), sequence (Q5MAI5 whole entry): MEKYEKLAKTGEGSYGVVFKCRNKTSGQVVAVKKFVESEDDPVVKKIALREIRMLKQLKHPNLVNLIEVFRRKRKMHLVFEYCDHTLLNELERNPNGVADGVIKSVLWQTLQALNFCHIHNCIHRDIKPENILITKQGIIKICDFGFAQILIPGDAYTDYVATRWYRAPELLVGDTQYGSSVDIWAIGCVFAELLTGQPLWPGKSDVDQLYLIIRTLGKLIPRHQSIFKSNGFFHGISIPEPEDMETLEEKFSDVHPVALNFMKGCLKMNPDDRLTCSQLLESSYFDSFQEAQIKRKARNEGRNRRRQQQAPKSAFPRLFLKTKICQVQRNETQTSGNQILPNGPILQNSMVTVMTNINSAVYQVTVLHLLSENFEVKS

[20] = target: Serine/threonine-protein kinase 32A (Homo sapiens) (UniProt Q8WU08); assay: Inhibition of recombinant full-length human STK32A at 1 uM assessed as residual activity at 1 uM using casein as substrate measured after 120 mins in presence of [gamma33P]ATP by scintillation counting method relative to control
[21] = target: DNA-dependent protein kinase catalytic subunit (Homo sapiens) (UniProt P78527); assay: Inhibition of recombinant full-length human DNA-PK at 1 uM assessed as residual activity at 1 uM using GST-cMyc-p53 as substrate measured after 40 mins by fluorescence assay
[22] = target: Dual specificity tyrosine-phosphorylation-regulated kinase 1A (Homo sapiens) (UniProt Q13627); assay: Inhibition of recombinant human DYRK1A assessed as residual activity at 1 uM using RRRFRPASPLRGPPK as substrate at 40 mins in presence of [gamma-33ATP] by scintillation counting based radiometry assay relative to control

Row | SMILES | Activity [1] [%] | Activity [2] [%] | Activity [3] [%] | Activity [4] [%] | Activity [5] [%] | Activity [6] [%] | Activity [7] [%] | Activity [8] [%] | Activity [9] [%] | Activity [10] [%] | Activity [11] [%] | Activity [12] [%] | Activity [13] [%] | Activity [14] [%] | Activity [15] [%] | Activity [16] [%] | Activity [17] [%] | Activity [18] [%] | Activity [19] [%] | Activity [20] [%] | further results
1 | N=C1NC(=O)/C(=C\c2ccc(-c3cccc([N+](=O)[O-])c3)o2)S1 | 95 | 95 | 88 | 103 | 87 | 82 | 108 | 94 | 104 | 101 | 8 | 50 | 104 | 95 | 103 | 98 | 87 | 100 | 65 | 100 | Activity [21]: 93%; Activity [22]: 25%
2 | C=CCOC(=O)c1cc(-c2ccc(/C=C3/NC(=S)NC3=O)o2)ccc1Cl | 87 | 107 | 96 | 98 | 98 | 91 | 98 | 117 | 98 | 95 | 10 | 26 | 92 | 111 | 90 | 92 | 107 | 104 | 58 | 101 | Activity [21]: 107%; Activity [22]: 16%
